Experimental data taken from US11945822B2, “Pyrazolo-triazine and/or pyrazolo-pxrimidine derivatives as selective inhibitor of cyclin dependent kinase” (QURIENT CO., LTD., priority 2018, dated 2024).

Assays:
[1] = target: T1, CDK1/Cyclin B (Homo sapiens, UniProt P06493); assay: Enzymatic assay for CDK1 (FRET based LANCE Ultra kinase assay); assay type: biochemical; details: read-out: CDK1 enzymatic activity (IC50 range)
T1 construct: purchased Invitrogen PR4768C
Experimental: (§1) Enzymatic Binding Assay Protocol for CDK1, CDK2, CDK5 and CDK7
(§2) Inhibition activity of the respective compound on CDK kinase under Km value of ATP was tested in FRET based The LANCE® Ultra kinase assay (Perkin Elmer), which uses a ULight™-labeled peptide substrate and an appropriate Europium-labeled anti-phospho-antibody. Test compounds were made with DMSO solutions, and then 4-fold serial dilutions for 8 doses were prepared using automated liquid handler (POD810, LABCYTE) and 80 nL/well of diluted compound solutions were added into the 384-well plates (Greiner, Cat #784075). And then 68 nM of ULight-MBP peptide (Perkin Elmer, Cat #TRF0109-M) and 5 ul/well of ATP (Sigma, Cat #A7699) were added to the plate. After 1 min centrifugation at 1000 rpm, Purified CDKs/Cyclin complex were added following concentrations respectively. 24 uM for CDK1/Cyclin B (Invitrogen, Cat #PR4768C), 22 uM for CDK2/Cyclin A (Invitrogen, Cat #PV6290), 10 uM for CDK5/p25 (Invitrogen, Cat #PR8543B) and […] for CDK7/Cyclin H/MNAT1 (Invitrogen, Cat #PR6749B) were added to the each corresponding plate for CDK1, CDK2, CDK5 and CDK7. Incubate at 23° C. for 60 min and then Eu-labeled anti-phospho-Myelin Basic Protein (PE, Cat #TRF0201-M) and EDTA (Invitrogen, Cat #15575038) mixture in Lance Detection Buffer (Perkin Elmer, Cat #CR97100) was added in each well. After additional incubation at 23° C. for 60 min, test articles were measured the fluorescence using Envision leader (Perkin Elmer, USA) [Laser as excitation light; […] as the first and the second emission filter]. Data was analyzed using XL Fit software.

[2] = target: T2, CDK2/Cyclin A (Homo sapiens, UniProt P24941); assay: Enzymatic assay for CDK2 (FRET based LANCE Ultra kinase assay); assay type: biochemical; details: read-out: CDK2 enzymatic activity (IC50 range)
T2 construct: purchased Invitrogen PV6290
Experimental: as §1, §2

[3] = target: T3, CDK5/p25 (Homo sapiens, UniProt Q00535); assay: Enzymatic assay for CDK5 (FRET based LANCE Ultra kinase assay); assay type: biochemical; details: read-out: CDK5 enzymatic activity (IC50 range)
T3 construct: purchased Invitrogen PR8543B
Experimental: as §1, §2

[4] = target: T4, CDK7/Cyclin H/MNAT1 (Homo sapiens, UniProt P50613); assay: Enzymatic assay for CDK7 (FRET based LANCE Ultra kinase assay); assay type: biochemical; details: for IC50: read-out: CDK7 enzymatic activity (IC50 range)
T4 construct: purchased Invitrogen PR6749B
Experimental: as §1
Inhibition activity of the respective compound on CDK kinase under Km value of ATP was tested in FRET based The LANCE® Ultra kinase assay (Perkin Elmer), which uses a ULight™-labeled peptide substrate and an appropriate Europium-labeled anti-phospho-antibody. […] After 1 min centrifugation at 1000 rpm, Purified CDKs/Cyclin complex were added following concentrations respectively. […] Data was analyzed using XL Fit software.

[5] = test system: MV4-11; assay: Cellular MV4-11 viability assay (CellTiter-Glo, 72 hours); assay type: cell-based; details: Homo sapiens
Experimental: (§3) All cell lines were routinely tested for mycoplasma.
(§4) The effect of the CDK7 inhibitor to inhibit the growth of target cancer cells was evaluated through the 72 hours time period of viability assay. Briefly, the candidate cell line ware plated in 96 well plate at the following density of cells respectively. […] DMSO solvent without compound served as a control and final DMSO concentration less than 0.1%. After 72 hours of incubation at 37° C., 5% CO2 incubator, cells were analyzed for the viability using the CellTiter-Glo Luminescent Cell Viability Assay (Promega, Cat #G7570). All viability assays were performed in duplicate and Luminescence was read using an Envision (Perkin Elmer, USA). Data was analyzed using XLfit software.

[6] = test system: H460; assay: Cellular H460 viability assay (CellTiter-Glo, 72 hours); assay type: cell-based; details: Homo sapiens, NCI-H460
Experimental: as §3, §4

[7] = test system: HCT116; assay: Cellular HCT116 viability assay (CellTiter-Glo, 72 hours); assay type: cell-based; details: Homo sapiens, HCT-116
Experimental: as §3, §4

T1 sequence (P06493 whole entry): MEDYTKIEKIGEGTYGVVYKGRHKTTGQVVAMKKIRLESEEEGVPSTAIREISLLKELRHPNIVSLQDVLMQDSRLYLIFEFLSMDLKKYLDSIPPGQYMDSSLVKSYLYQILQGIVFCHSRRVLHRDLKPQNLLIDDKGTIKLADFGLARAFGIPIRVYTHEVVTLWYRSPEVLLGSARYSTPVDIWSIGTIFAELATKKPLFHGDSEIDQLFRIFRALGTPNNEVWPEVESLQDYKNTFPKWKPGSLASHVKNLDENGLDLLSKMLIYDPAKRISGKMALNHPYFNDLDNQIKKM
T1 sequence (P14635 whole entry partner): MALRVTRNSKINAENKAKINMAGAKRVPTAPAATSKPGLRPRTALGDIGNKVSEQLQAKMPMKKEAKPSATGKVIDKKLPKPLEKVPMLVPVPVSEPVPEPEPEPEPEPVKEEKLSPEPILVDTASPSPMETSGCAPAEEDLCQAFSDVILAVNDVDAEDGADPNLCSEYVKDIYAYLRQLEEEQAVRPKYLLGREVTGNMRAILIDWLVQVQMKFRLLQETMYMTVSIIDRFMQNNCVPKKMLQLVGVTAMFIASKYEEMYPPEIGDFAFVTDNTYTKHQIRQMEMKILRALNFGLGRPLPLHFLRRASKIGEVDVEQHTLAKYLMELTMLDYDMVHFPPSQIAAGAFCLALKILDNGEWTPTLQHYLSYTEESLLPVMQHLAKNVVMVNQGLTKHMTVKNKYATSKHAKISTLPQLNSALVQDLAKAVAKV
T3 sequence (Q00535 whole entry): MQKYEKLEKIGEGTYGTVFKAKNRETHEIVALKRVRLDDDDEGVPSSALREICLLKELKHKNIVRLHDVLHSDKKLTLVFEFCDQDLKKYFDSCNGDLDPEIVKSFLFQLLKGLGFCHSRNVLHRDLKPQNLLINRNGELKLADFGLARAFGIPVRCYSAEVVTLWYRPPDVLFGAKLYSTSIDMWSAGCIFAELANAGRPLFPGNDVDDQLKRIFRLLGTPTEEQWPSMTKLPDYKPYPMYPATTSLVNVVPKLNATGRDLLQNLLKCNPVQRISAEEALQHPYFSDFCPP
T3 sequence (Q15078 99-307 partner limits assumed): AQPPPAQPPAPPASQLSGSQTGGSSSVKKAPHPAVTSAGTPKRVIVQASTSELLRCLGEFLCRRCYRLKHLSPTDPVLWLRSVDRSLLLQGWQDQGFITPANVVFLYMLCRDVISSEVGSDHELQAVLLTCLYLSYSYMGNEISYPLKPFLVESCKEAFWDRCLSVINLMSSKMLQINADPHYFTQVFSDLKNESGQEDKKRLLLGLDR
T4 sequence (P50613 whole entry): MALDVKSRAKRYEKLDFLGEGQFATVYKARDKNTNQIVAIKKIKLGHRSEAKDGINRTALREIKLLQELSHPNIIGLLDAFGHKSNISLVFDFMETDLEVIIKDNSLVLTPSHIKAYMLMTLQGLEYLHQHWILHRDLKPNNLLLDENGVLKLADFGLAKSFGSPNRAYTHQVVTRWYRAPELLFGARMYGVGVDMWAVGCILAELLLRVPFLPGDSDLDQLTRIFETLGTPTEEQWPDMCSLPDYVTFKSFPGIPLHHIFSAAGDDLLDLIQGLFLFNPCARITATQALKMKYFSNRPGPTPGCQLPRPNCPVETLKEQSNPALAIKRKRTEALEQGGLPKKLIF
T4 sequence (P51946 whole entry partner): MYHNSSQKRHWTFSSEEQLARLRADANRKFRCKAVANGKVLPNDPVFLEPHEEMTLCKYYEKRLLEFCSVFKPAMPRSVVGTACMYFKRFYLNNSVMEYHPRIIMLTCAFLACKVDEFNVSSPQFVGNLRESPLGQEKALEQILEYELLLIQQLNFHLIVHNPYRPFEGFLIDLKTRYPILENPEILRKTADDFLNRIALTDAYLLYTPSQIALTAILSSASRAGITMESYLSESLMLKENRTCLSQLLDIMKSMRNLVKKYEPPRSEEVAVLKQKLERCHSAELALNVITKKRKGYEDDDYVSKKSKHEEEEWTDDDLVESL
T4 sequence (P51948 whole entry partner): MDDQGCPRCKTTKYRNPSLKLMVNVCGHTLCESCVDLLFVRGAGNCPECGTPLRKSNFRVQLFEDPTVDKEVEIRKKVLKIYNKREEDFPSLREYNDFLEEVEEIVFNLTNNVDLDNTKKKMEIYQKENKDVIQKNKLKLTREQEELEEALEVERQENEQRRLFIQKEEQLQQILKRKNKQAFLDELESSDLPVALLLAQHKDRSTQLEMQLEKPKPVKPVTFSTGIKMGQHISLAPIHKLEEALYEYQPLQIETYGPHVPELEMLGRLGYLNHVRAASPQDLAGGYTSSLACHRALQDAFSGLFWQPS

Compound | IC50 [1] | IC50 [2] | IC50 [3] | CDK1/CDK7: Selectivity of CDK7 inhibition over CDK1 inhibition [4] | CDK2/CDK7: Selectivity of CDK7 inhibition over CDK2 inhibition [4] | CDK5/CDK7: Selectivity of CDK7 inhibition over CDK5 inhibition [4] | IC50 [4] | IC50 [5] | IC50 [6] | IC50 [7]
CC(C)c1cnn2c(NCc3ccccc3-n3cccn3)nc(Nc3cccc(OC4CCNC4)c3)nc12 (racemic) [Compound 164] | > 1000 nM | > 1000 nM | > 1000 nM | B (B=less than 200 fold, but greater than 20 fold) | B (B=less than 200 fold, but greater than 20 fold) | B (B=less than 200 fold, but greater than 20 fold) | < 100 nM | 1000 to 10000 nM |  | 
Cc1ccc(-c2cc3ccccc3[nH]2)c(CNc2nc(N3CCC(N)CC3)nc3c(C(C)C)cnn23)c1 [Compound 190] | > 1000 nM | > 1000 nM | > 1000 nM | A (A=greater than 200 fold) | A (A=greater than 200 fold) | B (B=less than 200 fold, but greater than 20 fold) | < 100 nM | 1000 to 10000 nM | 1000 to 10000 nM | 
CC(C)c1cnn2c(NCc3cccc4ccncc34)nc(N3CCC(N)CC3)nc12 [Compound 31] | 100 to 1000 nM | < 100 nM | < 100 nM | B (B=less than 200 fold, but greater than 20 fold) | B (B=less than 200 fold, but greater than 20 fold) | C (C=less than 20 fold) | < 100 nM |  | < 1000 nM | < 1000 nM
CC(C)c1cnn2c(NCc3ccccc3-n3cc4cc(NS(C)(=O)=O)ccc4n3)nc(N3CCC(N)CC3)nc12 [Compound 158] | 100 to 1000 nM | 100 to 1000 nM | < 100 nM | B (B=less than 200 fold, but greater than 20 fold) | B (B=less than 200 fold, but greater than 20 fold) | B (B=less than 200 fold, but greater than 20 fold) | < 100 nM | < 1000 nM |  | < 1000 nM
CC(C)c1cnn2c(NCc3ccccc3-n3cc4cc(O)ccc4n3)nc(N3CCC(N)CC3)nc12 [Compound 159] | > 1000 nM | 100 to 1000 nM | 100 to 1000 nM | A (A=greater than 200 fold) | B (B=less than 200 fold, but greater than 20 fold) | B (B=less than 200 fold, but greater than 20 fold) | < 100 nM | < 1000 nM |  | < 1000 nM
CC(C)c1cnn2c(NCc3ccccc3-n3cccn3)nc(-c3cccc(N4CCNCC4)c3)nc12 [Compound 167] | > 1000 nM | > 1000 nM | 100 to 1000 nM | A (A=greater than 200 fold) | B (B=less than 200 fold, but greater than 20 fold) | B (B=less than 200 fold, but greater than 20 fold) | < 100 nM | < 1000 nM | < 1000 nM | 
Cc1nc2c(CNc3nc(N4CCC(N)CC4)nc4c(C(C)C)cnn34)cccc2o1 [Compound 33] | 100 to 1000 nM | 100 to 1000 nM | < 100 nM | B (B=less than 200 fold, but greater than 20 fold) | B (B=less than 200 fold, but greater than 20 fold) | C (C=less than 20 fold) | < 100 nM |  | < 1000 nM | 
CC(C)c1cnn2c(NCc3ccccc3-n3cccn3)nc([C@H]3CC[C@H](N)CC3)nc12 [Compound 25] | 100 to 1000 nM | < 100 nM | < 100 nM | B (B=less than 200 fold, but greater than 20 fold) | C (C=less than 20 fold) | C (C=less than 20 fold) | < 100 nM |  | < 1000 nM | 
NC1CCN(c2nc(NCc3ccccc3-n3cccn3)n3ncc(C4CCCC4)c3n2)CC1 [Compound 12] | 100 to 1000 nM | 100 to 1000 nM | < 100 nM | B (B=less than 200 fold, but greater than 20 fold) | B (B=less than 200 fold, but greater than 20 fold) | C (C=less than 20 fold) | < 100 nM |  | < 1000 nM | 
CC(C)c1cnn2c(NCc3ccccc3-n3cccn3)nc(-c3cccc(C4CCNCC4)c3)nc12 [Compound 165] | > 1000 nM | > 1000 nM | 100 to 1000 nM | A (A=greater than 200 fold) | B (B=less than 200 fold, but greater than 20 fold) | B (B=less than 200 fold, but greater than 20 fold) | < 100 nM | < 1000 nM | < 1000 nM | 
Cc1ccc(CNc2nc(N3CCC(N)CC3)nc3c(C(C)C)cnn23)c(-c2cc3ccccc3[nH]2)c1 [Compound 191] | 100 to 1000 nM | 100 to 1000 nM | 100 to 1000 nM | B (B=less than 200 fold, but greater than 20 fold) | B (B=less than 200 fold, but greater than 20 fold) | B (B=less than 200 fold, but greater than 20 fold) | < 100 nM | < 1000 nM | < 1000 nM | 
